# According to ChEMBL document CHEMBL1145415, “Synthesis and antibacterial activity of novel fluoroquinolones containing substituted piperidines” (2007):
# Legend:
# Type in all cases: functional
# Klebsiella pneumoniae = assay: Antibacterial activity against Klebsiella pneumoniae 05-4 after 18 to 24 hrs
# Staphylococcus aureus [1] = assay: Antibacterial activity against methicillin-resistant Staphylococcus aureus 05-3 after 18 to 24 hrs
# Staphylococcus aureus [2] = assay: Antibacterial activity against methicillin-sensitive Staphylococcus aureus 04-4 after 18 to 24 hrs
# Escherichia coli = assay: Antibacterial activity against Escherichia coli ATCC 25922 after 18 to 24 hrs
# Enterococcus faecalis = assay: Antibacterial activity against Enterococcus faecalis 03-4 after 18 to 24 hrs
# Pseudomonas aeruginosa = assay: Antibacterial activity against Pseudomonas aeruginosa […] after 18 to 24 hrs
# Streptococcus pneumoniae = assay: Antibacterial activity against Streptococcus pneumoniae 05-9 after 18 to 24 hrs
SMILES,MIC (Klebsiella pneumoniae) [µg/mL],MIC (Staphylococcus aureus [1]) [µg/mL],MIC (Staphylococcus aureus [2]) [µg/mL],MIC (Escherichia coli) [µg/mL],MIC (Enterococcus faecalis) [µg/mL],MIC (Pseudomonas aeruginosa) [µg/mL],MIC (Streptococcus pneumoniae) [µg/mL]
CCCO/N=C1\CCN(c2nc3c(cc2F)c(=O)c(C(=O)O)cn3C2CC2)CC1NC (stereo not drawn),8,16,0.03,8,0.015,2,0.015
CO/N=C1\CN(c2nc3c(cc2F)c(=O)c(C(=O)O)cn3C2CC2)CCC1N (stereo not drawn),1,4,2,1,2,1,2
CCO/N=C1\CCN(c2nc3c(cc2F)c(=O)c(C(=O)O)cn3C2CC2)CC1N(C)C (stereo not drawn),2,1,0.015,8,0.004,1,0.002
CNC1CN(c2nc3c(cc2F)c(=O)c(C(=O)O)cn3C2CC2)CC/C1=N\OCc1ccccc1 (stereo not drawn),16,16,0.125,16,0.125,2,0.25
CNC1CCN(c2nc3c(cc2F)c(=O)c(C(=O)O)cn3C2CC2)C/C1=N\OC (stereo not drawn),1,0.5,< 0.001,1,< 0.001,0.06,< 0.001
CO/N=C1\CCN(c2nc3c(cc2F)c(=O)c(C(=O)O)cn3C2CC2)CC1N (stereo not drawn),2,16,4,8,8,4,4
CNC1CCN(c2nc3c(cc2F)c(=O)c(C(=O)O)cn3C2CC2)C/C1=N\OCc1ccccc1 (stereo not drawn),4,2,< 0.001,8,< 0.001,0.5,< 0.001
CO/N=C1\CN(c2nc3c(cc2F)c(=O)c(C(=O)O)cn3C2CC2)CCC1NC1CC1 (stereo not drawn),16,2,0.015,16,0.004,1,0.004
CO/N=C1\CCN(c2nc3c(cc2F)c(=O)c(C(=O)O)cn3C2CC2)CC1N(C)C (stereo not drawn),1,1,0.004,8,0.015,0.125,0.015
CN(C)C1CN(c2nc3c(cc2F)c(=O)c(C(=O)O)cn3C2CC2)CC/C1=N\OCc1ccccc1 (stereo not drawn),16,4,0.015,16,0.06,2,0.015
CO/N=C1\CCN(c2nc3c(cc2F)c(=O)c(C(=O)O)cn3C2CC2)CC1NC1CC1 (stereo not drawn),16,2,0.015,16,0.004,8,0.004
CCO/N=C1\CN(c2nc3c(cc2F)c(=O)c(C(=O)O)cn3C2CC2)CCC1NC (stereo not drawn),1,2,< 0.001,4,< 0.001,0.06,< 0.001
CNC1CN(c2nc3c(cc2F)c(=O)c(C(=O)O)cn3C2CC2)CC/C1=N\OC (stereo not drawn),2,4,< 0.001,4,< 0.001,1,< 0.001
CCO/N=C1\CCN(c2nc3c(cc2F)c(=O)c(C(=O)O)cn3C2CC2)CC1NC (stereo not drawn),16,4,< 0.001,8,< 0.001,1,< 0.001
CCCO/N=C1\CN(c2nc3c(cc2F)c(=O)c(C(=O)O)cn3C2CC2)CCC1NC (stereo not drawn),4,2,0.06,4,0.06,0.06,0.03
CC(=O)NC[C@H]1CN(c2ccc(N3CCOCC3)c(F)c2)C(=O)O1 [LINEZOLID],–,1,0.5,–,0.125,–,–
CO/N=C1\CN(c2nc3c(cc2F)c(=O)c(C(=O)O)cn3C2CC2)CC1CN (stereo not drawn) [GEMIFLOXACIN],0.125,0.004,0.004,0.125,0.004,0.125,0.004
CN[C@H](CC(C)C)C(=O)N[C@H]1C(=O)N[C@@H](CC(N)=O)C(=O)N[C@H]2C(=O)N[C@H]3C(=O)N[C@H](C(=O)N[C@H](C(=O)O)c4cc(O)cc(O)c4-c4cc3ccc4O)[C@H](O)c3ccc(c(Cl)c3)Oc3cc2cc(c3O[C@@H]2O[C@H](CO)[C@@H](O)[C@H](O)[C@H]2O[C@H]2C[C@](C)(N)[C@H](O)[C@H](C)O2)Oc2ccc(cc2Cl)[C@H]1O [VANCOMYCIN],–,–,–,–,–,–,0.004
CCCO/N=C1\CCN(c2nc3c(cc2F)c(=O)c(C(=O)O)cn3C2CC2)CC1N(C)C (stereo not drawn),16,2,0.5,16,0.25,2,0.125
